Reference: patent US20240091328A1, “FORMULATIONS AND METHODS FOR MHC-I RESTRICTED EPITOPE IMMUNIZATION” (The Research Foundation for The State University of New York, priority 2021, published 2024)
Where a name gives a salt, the structure may show the parent alone.

How the values were obtained:
[1] = system: IFN-γ and TNF-α producing CD8^+ T cells; assay: Intracellular IFN-γ / TNF-α staining of splenocytes after antigen re-stimulation; type: in vivo, BALB/c mice; conditions: mice vaccinated with CPQ and 20 RENCA peptides
Experimental: For Intracellular staining: 100 μL of 1×10^6 splenocytes were seeded in a flat bottom 96 wells plate and stimulated with 10 μg/mL antigen for 15-18 hours in the cell culture incubator. Then Brefeldin A was added to the plates with a dilution of 1000× for another 5 hours. Cells were transferred to a round bottom 96 wells plate and centrifuged at 1350 rpm for 3 mins, the cell pellets were washed twice and stained with 500× live/dead fixable dye, 200× diluted APC anti-mouse CD8, 200× diluted FITC anti-mouse CD4, 200× diluted PE/Cy7 anti-mouse CD62L and 200× diluted PerCP/Cy5.5 […] 25 min at 4° C. with shaking. Cells were washed twice and fixed and permeabilized by fixation/permeabilization buffer for 20 min at 4° C. Cells were washed twice with perm wash buffer and stained with 200× diluted pacific blue anti-mouse IFN-γ and 200× diluted PE anti-mouse TNF-α for 30 min on ice. Cells were washed twice by perm/wash buffer for flow cytometry.

[2] = system: RENCA cells; assay: Prophylactic vaccine tumor model, subcutaneous RENCA challenge; type: in vivo, BALB/c mice; conditions: single peptide with CoPoP liposome, days 0 and 7, RENCA day 14
Experimental: Multivalent vaccine was prepared by first incubate all 20 peptides with CPQ and 2HPQ liposome for a hour at room temperature with a mass ratio of 1:4. The binding percentage of peptides was assessed by peptide filtration assay. […] There was no significant change of sizes of liposome before or after binding, which were around 100 nm (FIG. 19B). The polydispersity index of liposomes is smaller than 0.25 (FIG. 19C). Mice were vaccinated with CPQ/peptides on day0 & 7, the injection dose is 50 ng per peptide and lug total peptide per mouse. Mice were then challenged with RENCA cells subcutaneously on day14.
To confirm which peptide was responsible to the anti-tumor efficacy of the vaccine, we admixed single peptide with CoPoP liposome as a vaccine to inject BALB/c mice. These 20 vaccines were injected to 20 groups of BALB/c mice on day 0 & 7, RENCA cells were inoculated on day14.
(§1) Tumor challenge: For the prophylactic vaccine tumor model, mice were vaccinated on day 0 and 7, and challenged on day 14. For testing the long-term protection of vaccine, mice were challenged on day 80. […] Tumor growth was monitored three times a week and tumor sizes were calculated by equation: Tumor volume=length×width^2/2. […] Tumor nodules were counted manually and lung weights were measured.

[3] = system: RENCA cells; assay: Cell lysis by splenocyte effector cells, LDH release, RENCA targets; type: cell-based, mouse; conditions: single peptide vaccine
Experimental: FIG. 20. […] BALB/c mice were immunized with CPQ/peptide vaccine on day 0 & 7, then inoculated with RENCA cells subcutaneously on day 14. (A) Tumor sizes of mice vaccinated with CPQ admixed with indicated peptide 18 days post tumor inoculation. Splenocytes were prepared 18 days post tumor inoculation and cultured in vitro for 5 days then stimulated with antigens and served as Effector cells (E), tumor cells were target cells (T). Effector cells were incubated with target cells for 5 hours, then specific lysis was analyzed by the nonradioactive LDH release assay by following the manufacturer's instructions. Percent cell lysis of RENCA cells (B) and percent cell lysis of irrelevant TC-1 cells (C). Error bars show mean+/−std. dev. for n=5 independent experiments.
For Cytotoxic T lymphocyte (CTL) cytotoxicity assay, isolated splenocytes were cultured in the cell culture medium and stimulated by mouse IL-2 (Pepro tech; catalog: 212-12; 10 IU/mL) and antigens (10 μg/mL) for 5 days to use as the effector cells. 5000 CT26 cells were seeded in a 96 wells plate and pulsed with 10 μg/mL antigens for 1 hour, then splenocytes were added to the plate at different E:T ratios for 5 hours. The cytotoxicity of splenocytes on tumor cells was assessed by lactate dehydrogenase (LDH) release using Non-Radioactive Cytotoxicity Assay Kit (Promega; catalog: G1780) according to manufacturer instructions.

[4] = system: RAW264.7 murine macrophage cells; assay: In vitro cell uptake of A5-HiLyte488, macrophages; type: cell-based, mouse; conditions: cells pre-incubated with inhibitor 10 μg/mL for an hour, CPQ/A5
Experimental: For in vitro cell uptake studies, RAW264.7 cells (2.5×10^5 per well) and BMDCs (2.5×10^5 per well) were cultured in a 24-well plates overnight, then treated with CPQ/A5-HiLyte488, 2HPQ/A5-HiLyte488 and PBS/A5-HiLyte488 (peptide concentration of 1 μg/mL) for 10 min, 30 min or an hour. For phagocytosis and endocytosis inhibitor study, cells were first pre-incubated with cytochalasin B (10 μg/ml) or chlorpromazine (10 μg/mL) for an hour before the cell uptake study. Cells were washed and lysed with 0.1% Triton X-100 and 10 mM dithiothreitol (DTT). The fluorescence signals were measured before and after adding DTT. Cellular A5-HiLyte488 uptakes were calculated by preparing an A5-HiLyte488 standard curve.

[5] = system: CT26 cells; assay: Experimental lung metastasis tumor model, CT26; type: in vivo, BALB/c mice; conditions: 1000 ng (total) peptides with CPQ, 1 and 8 days after i.v. CT26
Experimental: Tumor challenge: For the prophylactic vaccine tumor model, mice were vaccinated on day 0 and 7, and challenged on day 14. For testing the long-term protection of vaccine, mice were challenged on day 80. For the therapeutic vaccine tumor model, mice were inoculated with tumor cells subcutaneously on day 0, and then vaccinated with indicated vaccine on days 5 and 12. Tumor growth was monitored three times a week and tumor sizes were calculated by equation: Tumor volume=length×width^2/2. Animals were euthanized when the tumor sizes reached 1 cm in diameter or when animals developed an ulceration. For the experimental lung metastasis tumor model, animals were injected intravenously via tail vein with tumor cells on day 0, then were left untreated or treated with intramuscular injection with the indicated vaccines on day 2 and 9 for the A5 vaccine studies or day 1 and 8 for the RragcL385P, Tmem5S71N or EML5G44R peptide screening studies. Lungs were excised and stained with Bouin's solution (Sigma Catalog: HT10132) on day 18 for mice injected with CT26 cells and on day 16 for mice injected with 4T1 cells. Tumor nodules were counted manually and lung weights were measured.

[6] = system: IFN-γ producing CD8^+ T cells; assay: Intracellular IFN-γ in CD8+ T cells of re-stimulated PBMCs; type: in vivo, C57BL/6 mice; conditions: multivalent E6/E7 vaccine, 100 ng each peptide
Experimental: The E6 and E7 genes of TC-1 cells were sequenced from extracted DNA using Sanger sequencing. Six predicted H-2K^b- and H-2D^b-restricted epitopes within the top percentile of MHC-I binders were identified using a neural network simulation algorithm. […] These 6 peptides were combined with CPQ to form a single multivalent vaccine for mice and the immunogenicity of each peptide were assessed by Interferon gamma (IFN-γ production after individual peptide stimulation of collected peripheral blood mononuclear cells (PBMCs). Mice were then challenged with TC-1 cells subcutaneously to assess the tumor protection of the vaccine (FIG. 21A).
Collected PBMCs were re-stimulated with the epitope candidates that comprised the multivalent vaccine after which CD8^+ T cells were assessed for intracellular IFN-γ production, indicating the induction of Ag-specific CD8^+ T cells. […] When PBMCs from mice injected with the non-particle forming 2HPQ/peptides were re-stimulated with the peptides, none induced IFN-γ producing CD8^+ T cells (FIG. 21E).

[7] = system: TC-1 cells; assay: Prophylactic vaccine tumor model, subcutaneous TC-1 challenge; type: in vivo, C57BL/6 mice; conditions: days 0 and 7, challenge day 14
Description: To determine immunogenicity, C57BL/6 mice were then vaccinated intramuscularly with the multivalent vaccine on days 0 & 7, and peripheral blood mononuclear cells (PBMCs) were collected and mice challenged with TC-1 tumor cells on day 14. […] Thus, the presentation of the peptides in the form of a particle, even with identical amounts of QS-21 and MPLA, appeared to be important for inducing memory CD8^+ T cells.
Next, to determine which of the peptide epitopes provided anti-tumor activity, peptides were admixed individually with CPQ or 2HIPQ liposomes (FIG. 22A). Individually, all of the peptides effectively bound to CPQ liposomes, but not to 2HIPQ liposomes lacking cobalt (FIG. 22B). Liposome size remained ˜100 nm after binding with E6 and E7 peptides (FIG. 22C). Next, mice were vaccinated with the peptides admixed with CPQ on days 0 & 7 at a peptide dose of 500 ng. Each mouse was then challenged with TC-1 cells on day 14. […]
as §1, with “14.” for “14. For testing the long-term protection of vaccine, mice were challenged on day 80.”

[8] = system: IFN-γ; assay: In vivo peptide micro-library screening, IFN-γ ELISA of re-stimulated splenocytes relative to A5; design: species or system mice; conditions: rank among 100 micro-library peptides; IFN-γ on re-stimulation relative to A5; 5 peptides plus A5 with CPQ
Experimental: Mice were immunized with 5 library peptides at a time, along with the A5 peptide, with all peptides combined and admixed with CPQ. After two intramuscular injections, splenocytes were collected, and then re-stimulated with each of the synthetic micro-library peptides, individually. Production of IFN-γ was measured and peptide immunogenicity was determined relative to the A5 peptide, which served as in internal control that could induce strong Ag-specific CD8^+ T cell responses.
For Ag screening, multivalent vaccine composed of peptide with the same MHC-I haplotypes (H-2L^d, H-2D^d, or H-2K^d) and the internal A5 peptide were admixed with CPQ. After immunization, only ˜10% of MHC-I binding peptides induced T cells in splenocytes that produced IFN-γ with peptide re-stimulation, and none were nearly as effective as A5 (FIG. 16B). The most highly immunogenic peptides only produced about a quarter of the level of IFN-γ relative to A5. […] It is also feasible that immunization with higher antigen doses of single individual peptides could have induced stronger immunogenic responses, although this would decrease the in vivo peptide micro-library screening throughput.
IFN-γ ELISA: 2.5×10^5 splenocytes were seeded in a 96 wells plate and stimulated with 10 μg/mL antigens for 72 hr. 50 μL of supernatant was collected from each well and subjected to Interferon gamma ELISA (Thermofisher; catalog: BMS606TEN) according to manufacturer protocol.

## 3His-AYTTQREEL (HHHAYTTQREEL; N-terminal 3His tag; Renca_2)
[1]
  IFN-γ producing CD8^+ T cells in the spleen after stimulation with individual peptide: around 2%
[2]
  Tumor growth, single peptide vaccine: inhibited tumor growth
[3]
  Lysis of RENCA cells by T cells of vaccinated mice: induced functional T cells that specific targets to RENCA cells

## 3His-GYHESGHAI (HHHGYHESGHAI; N-terminal 3His tag; Renca_8)
[1]
  IFN-γ producing CD8^+ T cells in the spleen after stimulation with individual peptide: ~5%

## CN(C)CCCN1c2ccccc2Sc2ccc(Cl)cc21 [chlorpromazine, Chlorpromazine hydrochloride]
[4]
  A5 peptide uptake by macrophages in the presence of inhibitor: significantly less

## C=C1[C@@H](C)[C@H]2[C@H](Cc3ccccc3)NC(=O)[C@]23OC(=O)/C=C/[C@H](O)CCC[C@@H](C)C/C=C/[C@H]3[C@@H]1O [cytochalasin B]
[4]
  A5 peptide uptake by macrophages in the presence of inhibitor: significantly less

## Eml5G44R: 9-mer neoantigen peptide; tagged forms CT71 and 3his-CT71 (VYFVAGVRV)
[5]
  Lung nodules: no significant difference

## H3-RAHYNIVTF (HHHRAHYNIVTF; H3 N-terminal flank; E749-57)
[6]
  IFN-γ producing cells of CD8+ T cells over background after peptide re-stimulation of PBMCs: higher percentage
[7]; 500 ng peptide with CPQ
  Tumor-free survival maintained: at least 60 days
[7]; 500 ng peptide
  Tumor growth after TC-1 challenge, single peptide with CPQ: inhibited tumor growth

## H3-STHVDIRTL (HHHSTHVDIRTL; H3 N-terminal flank; E771-79)
[6]
  IFN-γ producing cells of CD8+ T cells over background after peptide re-stimulation of PBMCs: higher percentage

## H3-TLHEYMLDL (HHHTLHEYMLDL; H3 N-terminal flank; E76-14)
[6]
  IFN-γ producing cells of CD8+ T cells over background after peptide re-stimulation of PBMCs: higher percentage

## H6-WGAWLSGAL-ERR (HHHHHHWGAWLSGALERR; CT42)
[8]
  Experimental rank: 28

## H6-YGKGVNFYL-ERR (HHHHHHYGKGVNFYLERR; CT50)
[8]
  Experimental rank: 68

## H6-YVYEIYMTF-ERR (HHHHHHYVYEIYMTFERR; CT98)
[8]
  Experimental rank: 9

## H6-YYESDEFTV-ERR (HHHHHHYYESDEFTVERR; CT65)
[8]
  Experimental rank: 17

## H6-YYMRDVIAI-ERR (HHHHHHYYMRDVIAIERR; CT33)
[8]
  Experimental rank: 96

## Tmem5S71N: 9-mer neoantigen peptide; tagged forms CT96 and 3his-CT96 (VVEANWTML) (HHHVVEANWTML; N-terminal 3His tag; 3his-CT96/Tmem5S71N)
[5]
  Lung nodules: no significant difference
